Among the test systems are T47D; HL-60; NCI-H226; NCI-H460; SNB-75; SN12C; ACHN; HT-29; MDA-MB-435; SF-268; Hs-578T; SR; NCI-H522; K562; 786-0; CCRF-CEM; SK-MEL-2; SK-MEL-28; TK-10; SK-OV-3.
Experiment in all cases: DTP human tumour cell line panel, 48 h

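Five compound concentrations were applied to cells in 96-well plates for 48 hours; endpoints were derived by simple linear interpolation of the resulting dose-response curve. GI50 marks 50% less growth.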 The source made the active and inactive calls. Rule as the data show it: active = GI50 up to about 1.1 µM and inactive = higher. Some results are limits rather than exact numbers.

Usually GI50 stands for the concentration that inhibits growth by half. Regarding `Nc1nc(N)c(-c2cccc(C(F)(F)F)c2)c(Cc2cccc(C(F)(F)F)c2)n1`, the GI50 was 12.8 µM (inactive) in the test with T47D; 2.2 µM (inactive) in the test with HL-60; 10.4 µM (inactive) with NCI-H226; 0.604 µM (active) in the test on NCI-H460; 13.6 µM (inactive) with SNB-75; 3.54 µM (inactive) in the test with SN12C. The GI50 in the test on ACHN is 2.65 µM (inactive); with HT-29 it was 1.18 µM (inactive); in the test on MDA-MB-435 it was 2.96 µM (inactive); in the test on SF-268, 5.55 µM (inactive); in the test with Hs-578T, 14.2 µM (inactive); with SR, 1.25 µM (inactive). In addition, the GI50 was 4.06 µM (inactive) in the test with NCI-H522; 0.449 µM (active) in the test with K562; 0.841 µM (active) in the test on 786-0; 6.92 µM (inactive) in the test with CCRF-CEM; 7.71 µM (inactive) in the test on SK-MEL-2; 11.4 µM (inactive) in the test with SK-MEL-28. Besides, the GI50 is 7.67 µM (inactive) in the test on TK-10 and 8.97 µM (inactive) in the test with SK-OV-3.

For `COc1ccc(N2C(N)=C(C#N)C(C#N)(C#N)C2c2cccc([N+](=O)[O-])c2)cc1` (stereo not drawn), the GI50 in the test with T47D is 12.6 µM (inactive); in the test with HL-60, 3.03 µM (inactive); with NCI-H226, 19.8 µM (inactive); in the test on SNB-75, 18.8 µM (inactive); with SN12C it was 16.1 µM (inactive); in the test with ACHN, 14.2 µM (inactive). In addition, the GI50 in the test on HT-29 is 13.9 µM (inactive); in the test on MDA-MB-435, 16.9 µM (inactive); in the test with SF-268, 20.6 µM (inactive); in the test with Hs-578T, 24 µM (inactive); in the test on SR, 8.47 µM (inactive); in the test on NCI-H522, 7.14 µM (inactive). For the same compound, the GI50 was 2.92 µM (inactive) in the test on K562; 14.5 µM (inactive) with 786-0; 3.05 µM (inactive) with CCRF-CEM; 18.1 µM (inactive) in the test with SK-MEL-2; 8.57 µM (inactive) with SK-MEL-28; 16.6 µM (inactive) in the test with TK-10. In the test with SK-OV-3, the GI50 is 20.2 µM (inactive).

Consider `CC(=O)NC1C(OCc2ccccc2)OC(CO)C(O)C1OC(C)C(=O)N[C@@H](C)C(=O)N[C@H](CCC(=O)NCCNCCNc1c2ccccc2nc2cccc([N+](=O)[O-])c12)C(N)=O` (stereo partly drawn), for which the GI50 in the test with T47D was 0.0461 µM (active); with HL-60 it was 0.308 µM (active); with NCI-H226 it was 0.149 µM (active); with NCI-H460, < 0.01 µM (active); with SNB-75 it was 0.205 µM (active); in the test on SN12C, 0.104 µM (active). The GI50 with ACHN is 0.0557 µM (active); with HT-29, 0.0369 µM (active); with MDA-MB-435, 0.0389 µM (active); in the test with SF-268 it was 0.164 µM (active); in the test on Hs-578T, 0.356 µM (active); in the test on SR, 0.0794 µM (active). Further, the 50% growth inhibitory concentration (GI50) with NCI-H522 was < 0.01 µM (active); in the test on K562, 0.0311 µM (active); in the test with 786-0, 0.0601 µM (active); in the test with CCRF-CEM, 0.201 µM (active); in the test with SK-MEL-2 it was 0.048 µM (active); with SK-MEL-28, 0.245 µM (active). Besides, the concentration for 50% growth inhibition (GI50) in the test on TK-10 is 0.135 µM (active); with SK-OV-3, 0.348 µM (active).

As for `CC(=O)c1ccc2c3c1[C@H]1O[C@H]1c1cccc(c1-3)[C@@H]1O[C@H]21`, the GI50 was 2.15 µM (inactive) with T47D; 2.58 µM (inactive) in the test on HL-60; 29.4 µM (inactive) in the test on NCI-H226; 1.93 µM (inactive) with SNB-75; 1.85 µM (inactive) in the test on SN12C; 1.94 µM (inactive) in the test with ACHN. The GI50 in the test with HT-29 was 2.3 µM (inactive); in the test on MDA-MB-435, 1.79 µM (inactive); in the test on SF-268, 1.51 µM (inactive); in the test on Hs-578T, 1.53 µM (inactive); in the test on SR it was 4.57 µM (inactive); in the test with NCI-H522, 0.286 µM (active). The GI50 was 0.444 µM (active) in the test with K562; 2 µM (inactive) in the test on 786-0; 1.61 µM (inactive) in the test with CCRF-CEM; 2.74 µM (inactive) in the test on SK-MEL-2; 1.79 µM (inactive) in the test with SK-MEL-28; 4.21 µM (inactive) in the test on TK-10. Moreover, in the test on SK-OV-3, the GI50 is 5.32 µM (inactive).

In the case of `O/N=C1/C2CC3CC1(c1ccccc1)CC(/C3=N/O)/C2=N\O` (stereo not drawn), the GI50 with T47D, with HL-60, in the test with NCI-H226, in the test with NCI-H460, in the test with SNB-75 and with SN12C was > 100 µM (inactive) in each case. The GI50 in the test on ACHN, in the test with HT-29, with MDA-MB-435, in the test with Hs-578T, in the test on SR and in the test on NCI-H522 was > 100 µM (inactive) throughout. In addition, the GI50 with K562, in the test on 786-0, in the test with CCRF-CEM, in the test on SK-MEL-2, in the test on SK-MEL-28 and with TK-10 was > 100 µM (inactive) in each case. Also, the GI50 with SK-OV-3 was > 100 µM (inactive).

Take `CC(C)(Cc1ccccc1)N1C(=O)N1C(C)(C)Cc1ccccc1`: the GI50 was 65.9 µM (inactive) in the test on T47D; 4.78 µM (inactive) with HL-60; 16.4 µM (inactive) in the test on NCI-H226; > 100 µM (inactive) in the test on NCI-H460; 32.5 µM (inactive) in the test with SNB-75; 52 µM (inactive) in the test with SN12C. Besides, the GI50 in the test with HT-29 is 15.5 µM (inactive); with MDA-MB-435, 39.1 µM (inactive); in the test with SF-268, 53.2 µM (inactive); in the test with Hs-578T, > 100 µM (inactive); with SR it was 20.6 µM (inactive); in the test on NCI-H522, 13.8 µM (inactive). In addition, the GI50 in the test with K562 is 27.4 µM (inactive); with 786-0 it was 21.6 µM (inactive); in the test with CCRF-CEM, 20.8 µM (inactive); in the test with SK-MEL-2, 19.7 µM (inactive); in the test on SK-MEL-28, > 100 µM (inactive); in the test with TK-10 it was > 100 µM (inactive). Also, in the test on SK-OV-3, the GI50 is 57.4 µM (inactive).

Turning to `CN(C)CCCNC(=O)N/N=C/c1ccc(O)cc1`, the GI50 was > 100 µM (inactive) in the test on T47D; > 100 µM (inactive) in the test with HL-60; > 100 µM (inactive) in the test on NCI-H226; > 100 µM (inactive) in the test on NCI-H460; 59.2 µM (inactive) in the test on SNB-75; > 100 µM (inactive) in the test with SN12C. The GI50 in the test on ACHN, in the test on HT-29, in the test with MDA-MB-435, in the test on SF-268, in the test with Hs-578T and in the test with SR was > 100 µM (inactive) each time. Further, the GI50 in the test on NCI-H522, with K562, in the test with 786-0, with CCRF-CEM, in the test on SK-MEL-2 and with SK-MEL-28 was > 100 µM (inactive) throughout. Also, the GI50 in the test with TK-10 and in the test on SK-OV-3 was > 100 µM (inactive) each time.

As for `COc1ccc(C(SCCO)(c2ccccc2)c2ccccc2)cc1`, the GI50 with T47D is 9.84 µM (inactive); in the test with HL-60, 22.8 µM (inactive); in the test on NCI-H226 it was 12.7 µM (inactive); in the test on NCI-H460, 13.3 µM (inactive); in the test with SNB-75, 12.2 µM (inactive); with SN12C, 12.8 µM (inactive). Moreover, the GI50 in the test with ACHN was 14.1 µM (inactive); in the test on HT-29 it was 14.5 µM (inactive); in the test with MDA-MB-435, 10.5 µM (inactive); in the test with SF-268 it was 14.6 µM (inactive); with Hs-578T, 22.3 µM (inactive); in the test on SR it was 21.6 µM (inactive). In addition, the GI50 is 13.6 µM (inactive) with NCI-H522; 12.9 µM (inactive) in the test with K562; 12.5 µM (inactive) in the test with 786-0; 15.5 µM (inactive) in the test on CCRF-CEM; 13.1 µM (inactive) with SK-MEL-2; 17.1 µM (inactive) in the test with SK-MEL-28. The GI50 in the test on TK-10 was 18.8 µM (inactive); in the test with SK-OV-3, 16.5 µM (inactive).

On to `CCOC(=O)C(CS)NC(=O)CCCCCCCC(=O)O` (stereo not drawn), for which the GI50 with T47D is > 100 µM (inactive); with HL-60, > 100 µM (inactive); in the test on NCI-H226 it was > 100 µM (inactive); in the test on NCI-H460, > 100 µM (inactive); in the test with SNB-75 it was 0.724 µM (active); with SN12C it was > 100 µM (inactive). For the same compound, the GI50 was 78.3 µM (inactive) in the test on ACHN; > 100 µM (inactive) in the test on HT-29; > 100 µM (inactive) in the test on MDA-MB-435; > 100 µM (inactive) with Hs-578T; > 100 µM (inactive) in the test on SR; > 100 µM (inactive) in the test with NCI-H522. In addition, the GI50 with K562 was > 100 µM (inactive); in the test on 786-0 it was > 100 µM (inactive); in the test with CCRF-CEM it was 41.5 µM (inactive); in the test with SK-MEL-2, > 100 µM (inactive); in the test on SK-MEL-28, > 100 µM (inactive); in the test with TK-10 it was > 100 µM (inactive). The GI50 in the test on SK-OV-3 is > 100 µM (inactive).

For the compound `CCOC(=O)CCC(NC(=O)c1ccc(Nc2nc3ccccc3nc2C(=O)OCC)s1)C(=O)OCC` (stereo not drawn), the GI50 was > 100 µM (inactive) in the test on T47D; 36.6 µM (inactive) in the test with HL-60; 21.1 µM (inactive) with NCI-H226; > 100 µM (inactive) in the test with NCI-H460; > 100 µM (inactive) in the test on SNB-75; > 100 µM (inactive) in the test on SN12C. Also, the GI50 with HT-29 is > 100 µM (inactive); in the test with MDA-MB-435, > 100 µM (inactive); in the test with SF-268, 98.4 µM (inactive); in the test on Hs-578T it was 56.4 µM (inactive); with SR it was > 100 µM (inactive); with NCI-H522, > 100 µM (inactive). The GI50 with K562 was > 100 µM (inactive); in the test on 786-0, 21.7 µM (inactive); in the test with SK-MEL-2, > 100 µM (inactive); with SK-MEL-28 it was > 100 µM (inactive); with TK-10, > 100 µM (inactive); in the test with SK-OV-3 it was > 100 µM (inactive).

The values above are taken from ChEMBL document CHEMBL1201862, “PubChem BioAssay data set” (2004).
